Here are results for 11 compounds from patent publication US7211577B2, “Water-soluble phenylpyridazine derivative and medicine containing the same” (Kowa Co., Ltd., priority 2003, dated 2007).

Usually melting point stands for the temperature, or range, at which the solid turns liquid. In general, IC50 refers to the concentration at which inhibition is half-maximal.

Where a name gives a salt, the structure may show the parent alone. Read-outs that look alike come from different tables or passages of the source.

The nature of series [1]: Oral absorbability test on rats and/or mice. In kind it is in vivo. The conditions noted are these: orally administered to mice and/or rats, as in Experiment 3. An excerpt: Experiment 4 (Oral Absorbability Test on Rats and/or Mice)
In a similar manner as in Experiment 3, test compounds of Examples 23, 25, 143, 193, 245, 246, 247, 248 and 249 were orally administered to mice and/or rats to test their oral absorbability.

Another series is described as follows: Water solubility test. In kind it is physicochemical. The conditions noted are these: for Solubility (%): purified water, from amount of water required for dissolution. Here is the method:
Experiment 2 (Water Solubility Test) Testing Method
Each sample compound was weighed in the amount shown in Table 3, to which purified water was added in 0.05 mL aliquots. The solubility (%) of the compound was determined based on the amount of water required for its dissolution.

Series [2] relates to interleukin-1β production. Nature of the series: Inhibitory activity against interleukin-1β production (LPS-stimulated HL-60 cells, ELISA). In kind it is cell-based. The conditions noted are these: Table 1, lipopolysaccharide 10 μg/mL, culturing for 3 days, read-out: IL-1β production inhibiting activity IC50. Here is the method: Inhibitory Activity Against Interleukin-1β Production
HL-60 cells were cultured for 4 days until confluence on RPMI 1640 medium with 10% fetal bovine serum (FBS) added thereto. The medium was centrifuged. The supernatant was discarded, and the cells were then suspended at 1×10^6 cells/mL on RPMI 1640 medium with 3% FBS, and lipopolysaccharide was added to give a final concentration of 10 μg/mL. The culture was inoculated at 1 mL/well to a 24-well plate. A sample compound was added at 1 μL/well, followed by culturing for 3 days. Three days later, the amount of interleukin-1β in each culture was determined by ELISA. Each IC50 value was determined by a comparison in yield with a control to which no test sample was added.
For orientation: In an ELISA, binding on a coated surface is turned into a signal by an enzyme label.

Series [3] is described as follows: Oral absorbability test on rats (plasma levels by HPLC). It is filed as in vivo. The conditions noted are these: male SD rats, oral 10 mg/5 mL/kg, suspension in 0.5% MC, plasma 0.25-8 hours. Here is the method: Experiment 3 (Oral Absorbability Test on Rats)
The compound of Example 83 and the comparative compound 3 were suspended at 2 mg/mL with a 0.5% MC solution in mortars, respectively, and were orally administered to male SD rats at 10 mg/5 mL/kg. Upon elapsed time of 0.25, 0.5, 1, 2, 4, 6 and 8 hours after the administration, blood samples were collected and then centrifuged to provide plasma samples. The plasma levels of the respective compounds were determined by HPLC. […] The compound of Example 83 is, therefore, useful as an orally dosable medicine.

As for `Cc1cc(-c2cc(CN3CCN(C)CC3)c(=O)n(CC=Cc3ccc(Cl)cc3)n2)ccc1F.Cl.Cl` [Example 143, 2-(4-chlorocinnamyl)-6-(4-fluoro-3-methylphenyl)-4-(4-methyl-1-piperazinyl)methyl-2H-pyridazin-3-one dihydrochloride], the melting point is 229.7 to 243.3 °C (dec.). Further, in series [1], the “Oral absorbability (FIGS. 2 to 6)” value is “good absorbability”. Besides, in the series “Water solubility test”, the “Solubility (%)” value turned out to be 10%.
Compound `CSc1ccc(-c2cc(CN(C)C)c(=O)n(CC3CC3)n2)cc1.Cl` [Example 153, 2-cyclopropylmethyl-4-dimethylaminomethyl-6-[4-(methylthio)phenyl]-2H-pyridazin-3-one hydrochloride] displayed a melting point of 230.2 to 232.3 °C. For the same compound, the IC50 in series [2] (Homo sapiens, 72 h) was 0.58 µM. In addition, the “Solubility (%)” value in “Water solubility test” is recorded as 0.5%.
With `Cc1cc(-c2cc(CN3CCN(C)CC3)c(=O)n(CC(C)C)n2)ccc1F.Cl.Cl` [Example 83, 6-(4-fluoro-3-methylphenyl)-2-isobutyl-4-(4-methyl-1-piperazinyl)methyl-2H-pyridazin-3-one dihydrochloride], the “Oral absorption (plasma levels, FIG. 1)” value in series [3] is “good absorption”.
Consider `COc1ccc(-c2cc(CN(C)C)c(=O)n(Cc3ccc(F)c(F)c3)n2)cc1F.Cl` [Example 246, 2-(3,4-difluorobenzyl)-4-dimethylaminomethyl-6-(3-fluoro-4-methoxyphenyl)-2H-pyridazin-3-one hydrochloride], for which the “Oral absorbability (FIGS. 2 to 6)” value in series [1] was “good absorbability”. In addition, the “Solubility (%)” value in the series “Water solubility test” worked out at 2%.
As to `CNC(=O)c1cc(-c2ccc(OC)c(F)c2)nn(CC2CC2)c1=O` [compound 3, reference compound], the “Oral absorption (plasma levels, FIG. 1)” value in series [3] was “no substantial absorption”. Moreover, the “Dissolution in the added water (in words)” value in the series “Water solubility test” (100 mL purified water added) is “(insoluble)”. In addition, the “Solubility (%)” value in the series “Water solubility test” is recorded as less than 0.001%.
Take `COc1ccc(-c2cc(CN(CCO)CCO)c(=O)n(CC3CC3)n2)cc1F.Cl` [Example 23, 4-N,N-bis(2-hydroxyethyl)aminomethyl-2-cyclopropylmethyl-6-(3-fluoro-4-methoxyphenyl)-2H-pyridazin-3-one hydrochloride]: the IC50 in series [2] is 0.33 µM. The “Oral absorbability (FIGS. 2 to 6)” value in series [1] is recorded as “good absorbability”. Further, the “Solubility (%)” value in “Water solubility test” was 10%.
Consider `Cc1ccc(-c2cc(CN(CCO)CCO)c(=O)n(CC(C)C)n2)cc1` [Example 49, 4-N,N-bis(2-hydroxyethyl)aminomethyl-6-(4-methylphenyl)-2-isobutyl-2H-pyridazin-3-one hydrochloride], for which the IC50 in series [2] worked out at 3.53 µM.
Take `CC(C)Cn1nc(-c2ccc(F)c(F)c2)cc(CN(CCO)CCO)c1=O.Cl` [Example 108, 4-N,N-bis(2-hydroxyethyl)aminomethyl-6-(3,4-difluorophenyl)-2-isobutyl-2H-pyridazin-3-one hydrochloride]: in series [2], the IC50 came out at 3.44 µM. In the series “Water solubility test”, the “Solubility (%)” value is on record as more than 20%.
In the case of `COc1ccc(-c2cc(CN3CCNCC3)c(=O)n(Cc3ccc(F)cc3)n2)cc1F.Cl.Cl` [Example 193, 2-(4-fluorobenzyl)-6-(3-fluoro-4-methoxyphenyl)-4-(1-piperazinyl)methyl-2H-pyridazin-3-one dihydrochloride], in series [1], the “Oral absorbability (FIGS. 2 to 6)” value is “good absorbability”. Moreover, in “Water solubility test”, the “Solubility (%)” value is on record as 5%.
Regarding `Cc1cc(-c2cc(CN3CCN(C)CC3)c(=O)n(CCCc3ccc(Cl)cc3)n2)ccc1F.Cl.Cl` [Example 247, 2-[3-(4-chlorophenyl)propyl]-6-(4-fluoro-3-methylphenyl)-4-(4-methyl-1-piperazinyl)methyl-2H-pyridazin-3-one dihydrochloride], in series [1], the “Oral absorbability (FIGS. 2 to 6)” value was “good absorbability”. Moreover, the “Solubility (%)” value in “Water solubility test” is recorded as 10%.
With `COc1ccc(-c2cc(CN(C)C)c(=O)n(CC3CC3)n2)cc1F.Cl` [Example 14, 2-cyclopropylmethyl-4-dimethylaminomethyl-6-(3-fluoro-4-methoxyphenyl)-2H-pyridazin-3-one hydrochloride], the IC50 in series [2] (Homo sapiens, 72 h) was 3.61 µM. In addition, the “Solubility (%)” value in “Water solubility test” was found to be 0.8%.
